Test results reported in patent publication US10448639B2, “Fungicidal pyrazoles” (FMC CORPORATION, priority 2009, dated 2019).

Legend:
[1] = test system: Puccinia recondita f. sp. tritici; assay: Test I: wheat leaf rust, preventive spray on wheat seedlings, visual disease rating; conditions: wheat leaf rust, 100 = 100% disease control
Botrytis cinerea = assay: Test B: tomato Botrytis, preventive spray on tomato seedlings, visual disease rating; conditions: tomato Botrytis, 100 = 100% disease control
[2] = test system: Erysiphe graminis f sp. tritici; assay: Test J: wheat powdery mildew, preventive spray on wheat seedlings, visual disease rating; conditions: wheat powdery mildew, 100 = 100% disease control
[3] = test system: Puccinia recondita f. sp. tritici; assay: Test H: wheat leaf rust, curative spray on inoculated wheat seedlings, visual disease rating; conditions: wheat leaf rust, 100 = 100% disease control
From the text: General protocol for preparing test suspensions for Tests A-J: the test compounds were first dissolved in acetone in an amount equal to 3% of the final volume and then suspended at the desired concentration (in ppm) in acetone and purified water (50/50 mix by volume) containing 250 ppm of the surfactant Trem® 014 (polyhydric alcohol esters). The resulting test suspensions were then used in Tests A-J. Spraying a 200 ppm test suspension to the point of run-off on the test plants was the equivalent of a rate of 500 g/ha. Unless otherwise indicated, the rating values indicate a 200 ppm test suspension was used. (An asterisk “*” next to the rating value indicates a 40 ppm test suspension was used.)
Wheat seedlings were inoculated with a spore suspension of Puccinia recondita f. sp. tritici (the causal agent of wheat leaf rust) and incubated in a saturated atmosphere at 20° C. for 24 h, and then moved to a growth chamber at 20° C. for 2 days. At the end of this time the test suspension was sprayed to the point of run-off, and then the seedlings were moved to a growth chamber at 20° C. for 6 days after which time visual disease ratings were made.

Septoria tritici = assay: Test G: wheat leaf blotch, preventive spray on wheat seedlings, visual disease rating; conditions: wheat leaf blotch, 100 = 100% disease control
Alternaria solani = assay: Test C: tomato early blight, preventive spray on tomato seedlings, visual disease rating; conditions: tomato early blight, 100 = 100% disease control
Septoria nodorum = assay: Test F: Septoria glume blotch, preventive spray on wheat seedlings, visual disease rating; conditions: 100 = 100% disease control
[4] = preventive spray, 0 = no control
[5] = Septoria glume blotch on wheat, preventive spray, 0 = no control
[6] = preventive, 0 = no control relative to controls
[7] = 0 = no control relative to controls
[8] = curative, 0 = no control relative to controls
[9] = Septoria glume blotch, 0 = no control relative to controls

| Compound | Test I rating (% disease control) [1, 4] | Test B rating (% disease control) (Botrytis cinerea; [4]) | Test J rating (% disease control) [2, 4] | Test H rating (% disease control) ([3]; curative spray, 0 = no control) | Test G rating (% disease control) (Septoria tritici; [4]) | Test C rating (% disease control) (Alternaria solani; [4]) | Test F rating (% disease control) (Septoria nodorum; [5]) | Test I rating (% disease control) [1, 6] | Test B rating (% disease control) (Botrytis cinerea; [7]) | Test J rating (% disease control) [2, 7] | Test H rating (% disease control) [3, 8] | Test G rating (% disease control) (Septoria tritici; [7]) | Test C rating (% disease control) (Alternaria solani; [7]) | Test F rating (% disease control) (Septoria nodorum; [9]) |
| --- | --- | --- | --- | --- | --- | --- | --- | --- | --- | --- | --- | --- | --- | --- |
| Cc1nn(C)c(Nc2c(F)cc(F)cc2F)c1-c1c(F)cc(C#N)cc1F [compound 133] | 100% | 100% | 94% | 0% | 99% | 100% | 60% |  |  |  |  |  |  |  |
| COc1cc(F)c(Nc2c(-c3c(F)cc(C#N)cc3F)c(C)nn2C)c(F)c1 [compound 134] | 41% | 99% | 0% | 0% | 99% | 0% | 0% |  |  |  |  |  |  |  |
| Cc1cc(Oc2c(-c3c(F)cc(F)cc3F)c(C)nn2C)ccc1[N+](=O)[O-] [compound 135] | 74% | 0% | 95% | 16% | 97% | 0% | 0% |  |  |  |  |  |  |  |
| Cc1nn(C)c(Nc2cccc(F)c2)c1-c1c(F)cc(C#N)cc1F [compound 136] | 99% | 99% | 100% | 0% | 99% | 71% | 86% |  |  |  |  |  |  |  |
| Cc1nn(C)c(Nc2cc(F)ccc2F)c1-c1c(F)cc(C#N)cc1F [compound 137] | 100% | 96% | 100% | 8% | 99% | 97% | 78% |  |  |  |  |  |  |  |
| Cc1nn(C)c(Nc2cc(F)c(F)cc2F)c1-c1c(F)cc(C#N)cc1F [compound 138] | 100% | 99% | 98% | 38% | 99% | 96% | 84% |  |  |  |  |  |  |  |
| COc1cc(F)c(-c2c(C)nn(C)c2Oc2c(F)cc(C#N)cc2F)c(F)c1 [compound 140] | 96% | 99% | 97% | 0% | 99% | 94% | 87% |  |  |  |  |  |  |  |
| CCOc1cc(F)c(-c2c(C)nn(C)c2Nc2ccc(F)cc2F)c(F)c1 [compound 141] | 99% | 99% | 100% | 0% | 100% | 99% | 98% |  |  |  |  |  |  |  |
| Cc1nn(C)c(Nc2cc(Cl)ccc2F)c1-c1c(F)cc(C#N)cc1F [compound 142] | 95% | 33% | 90% | 0% | 99% | 13% | 20% |  |  |  |  |  |  |  |
| Cc1nn(C)c(Nc2ccc(Cl)cc2F)c1-c1c(F)cc(C#N)cc1F [compound 143] | 100% | 99% | 100% | 63% | 100% | 99% | 100% |  |  |  |  |  |  |  |
| Cc1nn(C)c(Nc2ccc(F)c(Cl)c2)c1-c1c(F)cc(C#N)cc1F [compound 144] | 98% | 99% | 91% | 0% | 99% | 9% | 40% |  |  |  |  |  |  |  |
| Cc1nn(C)c(Nc2cccc(F)c2F)c1-c1c(F)cc(C#N)cc1F [compound 145] | 100% | 96% | 100% | 88% | 100% | 98% | 100% |  |  |  |  |  |  |  |
| Cc1nn(C)c(Nc2cc(Cl)ccc2Cl)c1-c1c(F)cc(C#N)cc1F [compound 146] | 97% | 99% | 56% | 0% | 99% | 0% | 0% |  |  |  |  |  |  |  |
| Cc1nn(C)c(Nc2cccc(Cl)c2Cl)c1-c1c(F)cc(C#N)cc1F [compound 147] | 98% | 99% | 92% | 0% | 100% | 88% | 100% |  |  |  |  |  |  |  |
| Cc1nn(C)c(Oc2ccc(F)cc2C#N)c1-c1ccc(F)cc1Cl [compound 149] |  |  |  |  |  |  |  | 100% | 100% | 100% | 99% | 100% | 98% | 100% |
| Cc1nn(C)c(Oc2cc(C#N)c(C#N)cc2Cl)c1-c1ccc(F)cc1Cl [compound 150] |  |  |  |  |  |  |  | 74% | 19% | 50% | 0% | 7% | 0% | 60% |
| COc1cc(Oc2c(-c3c(F)cc(F)cc3F)c(C)nn2C)ccc1[N+](=O)[O-] [compound 151] |  |  |  |  |  |  |  | 54% | 99% | 64% | 0% | 96% | 9% | 0% |
| COc1cc(F)c(-c2c(C)nn(C)c2Oc2ccc(Cl)c(F)c2)c(F)c1 [compound 152] |  |  |  |  |  |  |  | 97% | 100% | 99% | 9% | 99% | 82% | 87% |
| COc1cc(F)c(-c2c(C)nn(C)c2Oc2ccc(Br)c(F)c2)c(F)c1 [compound 153] |  |  |  |  |  |  |  | 96% | 100% | 98% | 0% | 100% | 0% | 73% |
| Cc1nn(C)c(Nc2ncc(F)cc2F)c1-c1ccc(F)cc1Cl [compound 154] |  |  |  |  |  |  |  | 100% | 99% | 100% | 41% | 100% | 99% | 97% |
| COc1ccc(-c2c(C)nn(C)c2Oc2c(F)cc(C#N)cc2F)c(Cl)c1 [compound 155] |  |  |  |  |  |  |  | 100% | 100% | 99% | 92% | 100% | 99% | 100% |
| Cc1nn(C)c(Oc2ccc([N+](=O)[O-])c(C#N)c2)c1-c1c(F)cc(F)cc1F [compound 156] |  |  |  |  |  |  |  | 41% | 94% | 47% | 0% | 73% | 0% | 0% |
| Cc1cc(Oc2c(-c3c(F)cc(F)cc3F)c(C)nn2C)ccc1Cl [compound 157] |  |  |  |  |  |  |  | 54% | 0% | 73% | 0% | 0% | 0% | 0% |
| CCN(c1c(F)cc(OC)cc1F)c1c(-c2ccc(F)cc2Cl)c(C)nn1C [compound 158] |  |  |  |  |  |  |  | 99% | 100% | 98% | 18% | 99% | 0% | 0% |
